Source: US9815849B2, “Compositions and methods for treating leukemia” (Dana-Farber Cancer Institute, Inc., priority 2010, dated 2017)
Entries after “also recorded” stand apart in the source; their conditions may differ.

How the values were obtained:
[1] = Pharmacokinetic study of (+)-JQ1 in mice (plasma, LCMS-MS); format: in vivo
Description: FIG. 29A includes a table of pharmacokinetic data and measured parameters. […] Data represent mean measurements and error bars indicate the standard deviation, both from triplicate independent measurements. Plasma concentrations of drug above the biologically active concentration observed in vitro (100 nM; horizontal red line) are observed for more than 10 hours by extrapolation.

[2] = test system: primary MLL-rearranged pediatric leukemias; test: Pediatric primary leukemia sample analysis (WST-1, 72 h); format: cell-based, human; details: 3/3 tested primary MLL-rearranged pediatric leukemias
Source text: Diagnostic bone marrow samples were collected under institutional review board-approved protocols from newly diagnosed children with acute leukemia. Informed consent was obtained in accordance with the Helsinki protocol. At the time of collection, primary leukemic cells were enriched by density centrifugation using Ficoll-Paque PLUS (GE Healthcare, Piscataway, N.J.) and subsequently stored in liquid nitrogen. Vials of cryopreserved cells were thawed, resuspended in media, and live leukemic cells were enriched by density centrifugation. Cells were maintained in supplemented media with 20% fetal bovine serum. All leukemia cell cultures were incubated at 37° C. in 5% CO2.
WST-1 assays were performed in triplicate.

[3] = test system: mouse MLL-fusion leukemia cells; test: Proliferation assay of mouse leukemia cells versus fibroblasts and G1E; format: cell-based; details: as compared to fibroblasts and G1E
Description: (§2) Proliferation assays were performed by counting the increase in viable cell number over seventy-two hours. Dead cells were excluded by incubating with propidium iodide (PI). Cell concentration measurements were performed on a Guava Easycyte (Millipore, Billerica, Mass.), gating only viable cells using forward/side scatter/PI-cells. Proliferation rate was calculated using the equation: ln(cell concentration72 h/cell concentration0 h)/72. Relative proliferation rate was calculated by normalizing to rate of DMSO-treated cells.

[4] = test system: non-AML leukemia and solid tumor cell lines; test: Proliferation assay of non-AML leukemia and solid tumor cell lines; format: cell-based, human; details: other tested non-AML leukemia and solid tumor cell lines
Description: as §2

AML lines = test: BrdU cell cycle analysis and apoptosis measurement in AML lines; format: cell-based; details: all tested AML lines
Description: BrdU incorporation assays were performed according to the manufacturer's protocol (BD, APC BrdU Flow Kit, #552598), where cells were pulsed with BrdU for 30 min. Cells were co-stained with 7-AAD or DAPI for DNA content measurement. For all conditional shRNA experiments, the analysis was gated on shRNA+/dsRed+ cell populations. Annexin V staining for apoptosis was performed according to manufacturer's protocol (BD Biosciences, APC Annexin V, #550475). In FIG. 4e, Annexin V gating was performed on live cells (FSC/SCC) and dsRed+/shRNA+ population, to ensure a clear readout of shRNA effects. […] All analyses were performed using Flowjo software.

[5] = test system: MLL-AF9/Nras^G12D leukemia; test: MLL-AF9/NrasG12D leukemia transplant model, JQ1 treatment; format: in vivo, mice
Source text: FIG. 12A includes bioluminescent images of mice administered doxycycline upon disease onset, i.e., six days post-transplant. Day zero is the first day of doxycycline administration. FIG. 12B includes a graph showing the quantification of bioluminescent imaging responses following doxycycline administration. Shown are mean values of four replicate mice. FIG. 12C includes a graph showing Kaplan-Meier survival curves of recipient mice transplanted with the indicated TRMPV-shRNA leukemia cell line. The period of doxycycline administration is indicated by an arrow. Statistical significance relative to shRNAs that target Renilla luciferase (shRen) was calculated using a Log-rank test; *p=0.0001, **p<0.0001. FIG. 12D includes flow cytometry of donor-derived (CD45.2-positive) bone marrow cells in terminally diseased doxycycline-administered mice. Gate shown includes dsRed-positive/shRNA-positive cells. FIG. 12E includes a graph showing the quantification of dsRed-positive/shRNA-positive percentage in CD45.2-positive terminal leukemia burden. […] Shown are mean values of 6 DMSO- and 7 JQ1-treated mice. p-values were calculated using a two-tailed Student's paired t-test. […] Statistical significance was calculated using a Log-rank test. […] Shown are mean values of 6 DMSO- and 7 JQ1-treated mice. p-values were calculated using a two-tailed Student's paired t-test. […]
Mice were transplanted with 1 million leukemia cells, followed by treatment initiation on day 4 (when disease becomes visible by imaging). FIG. 13B includes a graph showing quantitation of the bioluminescent images. […] Statistical significance was calculated using a Log-rank test. […] Statistical significance was calculated using a Log-rank test.
For whole body bioluminescent imaging mice were intraperitoneally injected with 50 mg/kg D-Luciferin (Goldbio, St. Louis, Mo.), and after 10 min. analyzed using an IVIS® Spectrum system (Caliper LifeSciences, Waltham, Mass.). Quantification was performed using Living Image software (Caliper LifeSciences) and standardized rectangular region of interests covering the mouse trunk and extremities. […]

[6] = test system: AML1-ETO9a/Nras^G12D/p53^−/− AML; test: AML1-ETO9a/NrasG12D/p53-/- AML mouse model, JQ1 treatment; format: in vivo, mice; details: 50 mg/kg/d, treatment started after disease onset
Source text: FIG. 14A is a schematic showing the experimental strategy. p53^−/− HSPCs were cotransduced with AML1-ETO9a and Luciferase-IRES-NrasG12D constructs, followed by transplantation of cells into a sublethally irradiated recipient mouse. With high-penetrance, mice succumb to AML as has been described previously (Dick, J. E., Blood 2008; 112:4793-807). Splenic leukemia material derived from moribund mice was transplanted into secondary recipient animals. […] FIG. 14B includes bioluminescent images of leukemic mice at indicated timepoints. […] Shown are mean values of 8 mice in each treatment group, error bars represent s.e.m, p-values were calculated using a two-tailed Student's paired t-test.

[7] = Tolerability and normal hematopoiesis in healthy mice after 20 days of JQ1; format: in vivo, C57BL/6 mice
Source text: Peripheral blood was collected by submandibular bleeding and analyzed using a Hemavet 950 analyzer (Drew Scientific). Values represent average values of 3 replicate mice; error bars indicate s.e.m.
Representative images are shown.
FIG. 17B includes graphs showing the percentage of total bone marrow cells staining for the indicated antibodies. (n=3). Error bars indicate s.e.m.
Paraffin embedded sections were stained with hematoxylin & eosin (H&E). Photographs were taken on a Nikon Eclipse 80i microscope with a Nikon Digital Sight camera using NIS-Elements F2.30 software at a resolution of 2560×1920. Using Adobe Photoshop CS2, images were re-sized and set at a resolution of 300 pixels/inch, autocontrast was applied, and unsharp mask was used to improve image clarity.

[8] = test system: MLL-AF9/Nras^G12D leukemia cells; test: May-Grunwald/Giemsa cytospin morphology of leukemia cells; format: cell-based, mouse; details: 100 nM JQ1, 2 days
Description: 50,000 cells were resuspend in 100 μl FACS buffer (5% FBS, 0.05% NaN3 in PBS) cytospun onto glass slides using Shandon Cytospin 2 Centrifuge at 500 rpm for 5 min. May-Grunwald (Sigma-Aldrich, #019K4368) and Giemsa (Sigma-Aldrich, #010M4338) stainings were performed according to manufacturer's protocols. Images were collected using a Zeiss Observer Microscope with a 40× objective.

Myc [9] = test: Myc RT-qPCR and Western blot in leukemia cells; format: cell-based, mouse
Description: FIG. 20D includes a graph showing RT-qPCR results. […] FIG. 20E includes a graph showing ChIP-qPCR results. […] TSS=transcription start site. […] (n=3). […] Representative images taken at 40× objective are shown. All error bars shown represent s.e.m.
For Brd4 Western blots, 30 μg of whole cell lysate RIPA extract (25 mM Tris pH7.6, 150 mM NaCl, 1% NP-40, 1% Sodium deoxycholate, 0.1% SDS) was loaded into each lane. For Myc Western blots, cells were lysed directly in Laemmli buffer. About 50,000 cell equivalents were loaded in each lane. Protein extracts were resolved by SDS-PAGE electrophoresis and transferred to nitrocellulose for blotting.
(§1) RNA was prepared using Trizol® reagent (Invitrogen, Carlsbad, Calif.). cDNA synthesis was performed using gScript™ cDNA SuperMix (Quanta Biosciences, Gaithersburg, Md., #101414-106). Quantitative PCR (qPCR) analysis was performed on an ABI™ 7900HT with Sybr green (ABI, Carlsbad, Calif., #4364344). All signals were quantified using the delta-Ct method. All signals were normalized to the levels of GAPDH.

Myc [10] = test: Myc levels in MEF or G1E cells; format: cell-based, mouse
Description: as §1

Hoxa7, Hoxa9, Meis1 = test: RT-qPCR of direct MLL-AF9 target genes; format: cell-based, mouse; details: JQ1 treatment of leukemia cells
Source text: FIGS. 30A-30C show the broadly overlapping transcriptional effects elicited upon suppressing Brd4, Myb, and MLL-AF9 with downregulation of Myc upon suppressing any of the three factors. FIG. 30A includes GSEA plots evaluating transcriptional signatures downstream of MLL-AF9 and Myb. […] The 500 gene cutoff corresponds to a Log2 fold-change of −1.17 for Myb and −1.77 for MLL-AF9. FIG. 30B includes a heat map representation of Myc expression in the indicated microarray replicates. Log2 fold-change and adj.P.Val were calculated using Limma algorithm, implemented using Bioconductor. FIG. 30C includes a graph showing RT-qPCR results. […] Error bars represent s.e.m.
as §1

Brd4 = Brd4 (Mus musculus, UniProt Q9ESU6); details: MLL-AF9/Nras^G12D leukemia cells
Description: ChIP assays were performed exactly as described (Filippakopoulos et al.). […] All results were quantified by qPCR performed using SYBR green (ABI) on an ABI 7900HT. Each IP signal was referenced to an input standard curve dilution series (IP/Input) to normalize for differences in starting cell number and for primer amplification efficiency.

AML cell lines = test: cells; details: Homo sapiens, 72 h, read-out: IC50, growth-suppressive activity (proliferation rate)
Description: as §2

primary AMLs = test: cells; details: Homo sapiens, read-out: IC50, growth-suppressive activity
Description: Primary leukemic cells were obtained from peripheral blood (PB) or bone marrow (BM) aspirate samples of 12 (untreated) patients with AML at diagnosis (n=10) or at relapse (n=2). […] Mononuclear cells (MNC) were prepared using Ficoll and stored in liquid nitrogen until used. […] HL60 and MOLM13 cell lines were included as controls (German Collection of Microorganisms and Cell Cultures, DSMZ, Braunschweig, Germany).
Filters were air-dried, and the bound radioactivity was measured in a β-counter (Top-Count NXT, Packard Bioscience). All experiments were performed in triplicates.

[11] = daily injections of JQ1 50 mg/kg vs vehicle

Cc1sc2c(c1C)C(c1ccc(Cl)cc1)=N[C@@H](CC(=O)OC(C)(C)C)c1nnc(C)n1-2 [(+)-JQ1, (S)-tert-Butyl 2-(4-(4-chlorophenyl)-2,3,9-trimethyl-6H-thieno[3,2-f][1,2,4]triazolo[4,3-a][1,4]diazepin-6-yl)acetate]
time with plasma concentration above the biologically active concentration observed in vitro (100 nM) ([1]; 50 mg/kg intraperitoneal, by extrapolation): more than 10 hours | Cmax ([1]; mouse, plasma, ip, single intraperitoneal injection 50 mg/kg, adult C1 male mice, read-out: peak plasma concentration (Cmax)): > 20 µM | AUC ([1]; mouse, plasma, ip, single intraperitoneal injection 50 mg/kg, adult C1 male mice, read-out: total drug exposure (AUC)): > 20000 ng·h/mL

Cc1sc2c(c1C)C(c1ccc(Cl)cc1)=NC(CC(=O)OC(C)(C)C)c1nnc(C)n1-2 (racemic) [JQ1, tert-Butyl 2-(4-(4-chlorophenyl)-2,3,9-trimethyl-6H-thieno[3,2-f][1,2,4]triazolo[4,3-a][1,4]diazepin-6-yl)acetate]
sensitivity to JQ1 [2]: highly sensitive | proliferation sensitivity [3]: strikingly sensitive to sub-micromolar JQ1 concentrations | sensitivity to the compound [4]: minimal sensitivity | cell-cycle arrest and apoptosis (AML lines): universally triggered cell-cycle arrest and apoptosis | half-life ([1]; in rodents): about one | disease progression (bioluminescent imaging) [5, 11]: marked delay in disease progression | survival [5, 11]: significantly extended survival | activity in established disease ([5]; established MLL-AF9/NrasG12D leukemia, 50 or 100 mg/kg/d): single-agent activity in the setting of established disease | activity in established disease [6]: single-agent anti-leukemia activity | impact on normal hematopoiesis ([7]; 50 or 100 mg/kg/d intraperitoneal for 20 days): little if any impact on normal hematopoiesis; also recorded: minimal impact on normal hematopoiesis | H&E histopathology of sternal bone marrow ([7]; daily intraperitoneal 50 mg/kg or 100 mg/kg for 20 days): normal cellularity and normal mixed hematopoiesis | tolerability ([7]; mice): well-tolerated | cell morphology (differentiation) [8]: macrophage-like appearance | time to downregulation of Myc mRNA levels (Myc [9]; 250 nM JQ1, MLL-AF9/Nras^G12D leukemia cells): ≤ 60 min | Myc mRNA and protein levels (Myc [9]; mouse MLL-AF9/Nras^G12D leukemia cells): dramatic reduction in Myc mRNA levels and Myc protein levels | effect on Myc levels (Myc [10]): minimal effects | expression of Hoxa7, Hoxa9, or Meis1 (Hoxa7, Hoxa9, Meis1): does not influence expression | focal Brd4 occupancy ~2 kilobases upstream of the Myc promoter (Brd4): eliminated | IC50 (AML cell lines): < 500 nM | IC50 (primary AMLs): < 500 nM
